Here are results for one compound from article PMC9006931, “Altered Response Pattern following AZD5582 Treatment of SIV-Infected, ART-Suppressed Rhesus Macaque Infants” (Journal of Virology, 2022).

The test system of data set [1] is SIVmac251. The data set can be described thus: On-ART viremia (latency reversal) during AZD5582 treatment of SIV-infected, ART-suppressed infant RMs. The data set is classed as in vivo, rhesus macaque (Macaca mulatta). From the text:
In this study, latency reversal was defined as a plasma SIV RNA level above 60 copies/mL during AZD5582 treatment in the presence of continued daily ART (or, “on-ART viremia”). […] On-ART viremia peaked at 771 copies/mL in RVf20 2 days post-dose 9. […] This low-level viremia contrasts, however, with the sustained suppression below 60 copies/mL in the 10 months before AZD5582 treatment in these 3 infants (Fig. 1B).
Twelve infant, Indian RMs (Macaca mulatta), with the exclusion of Mamu B*08- and B*17-positive animals, were enrolled in this study. The animals were born at the Yerkes National Primate Research Center (YNPRC) to dams housed in indoor/outdoor group housing. The infants were removed from the dams when they were approximately 2 weeks old and transferred to an indoor nursery, where they were housed in social pairs with either full contact or protected contact for the duration of the study. The infants were fed in accordance with the YNPRC standard operating procedures (SOPs) for NHP feeding. After being removed from the dam, infants were fed center-approved milk replacer (Similac Advance, OptiGro Infant Formula with Iron and/or Similac Soy Isomil OptiGro Infant Formula with Iron; Abbott Nutrition, Columbus, OH) until 14 weeks of age. Infants were provided softened standard primate jumbo chow biscuits (Jumbo Monkey Diet 5037; Purina Mills, St. Louis, MO) and a portion of orange starting between 2 to 4 weeks of age. As animals aged additional enrichment of various fresh produce items were provided daily. The animals were orally infected at 4 to 5 weeks of age with two consecutive doses of 10^5 TCID50 (50% tissue culture infectious doses) of SIVmac251. Three infants required multiple weekly 2-dose challenges before successful infection (totaling up to three challenges). Eight historical controls that followed the same regimen were included in this study. Yerkes National Primate Research Center is accredited by both the U.S. Department of Agriculture (USDA) and by the Association for Assessment and Accreditation of Laboratory Animal Care (AAALAC). All animal procedures were performed in accordance with guidelines established by the Emory University Institutional Animal Care and Use Committee Guidelines and those set up by the NIH’s Guide for the Care and Use of Laboratory Animals, 8th edition.
The 12 RM infants were treated with a potent three-drug ART regimen initiated at 4 weeks postinfection. The preformulation ART cocktail contained two reverse transcriptase inhibitors, 5.1 mg/kg tenofovir disoproxil fumarate (TDF) and 40 mg/kg emtricitabine (FTC), plus 2.5 mg/kg of the integrase inhibitor dolutegravir (DTG). This ART cocktail was administered once daily at […] via the subcutaneous route.
(§1) The IAPi AZD5582 was reconstituted to 0.4 mg/mL in 10% Captisol within 1 week of administration as previously described ([17]). Monkeys assigned to the experimental intervention group received 10 administrations of 0.1 mg/kg AZD5582 by intravenous (i.v.) infusion with an inline filter for 30 minutes every week for 10 weeks.
Plasma viral quantification was performed as described previously ([12]). The frozen cell pellet was lysed with proteinase K (100 μg/mL in 10 mM Tris-HCl pH 8) for 1h at 56°C. Quantification of SIVmac gag DNA was performed by quantitative PCR (qPCR) using the 5′ nuclease (TaqMan) assay with an ABI7500 system (PerkinElmer Life Sciences). The sequence of the forward primer for SIVmac gag was 5′-[…]-3′, the reverse primer sequence was 5′-[…]-3′, and the probe sequence was 5′-6-carboxyfluorescein (FAM)-[…]-6-carboxytetramethylrhodamine (TAMRA)-3′. 7.5 μL of cell lysate were mixed in a 50 μL reaction mixture containing 1× Platinum Buffer, 3.5 mM MgCl2, 0.2 mM dNTP, primers 200 nM, probe 150 nM, and 2U Platinum Taq. For cell number quantification, quantitative PCR was performed simultaneously for monkey albumin gene copy number. […]

On the set-up of data set [2]: method as in PMID 31969707. The note with it: adult RMs (n = 7), matched doses, plasma; cited from earlier work.
The nature of data set [3]: Tolerability of repeated AZD5582 infusions in infant RMs. The note with it: 0.1 mg/kg i.v., 10 infusions. The data set is classed as in vivo. As to the method:
as §1
EDTA-anticoagulated blood samples were collected regularly and used for a complete blood count, routine chemical analysis, and immunostaining, with plasma separated by centrifugation within 1 h of phlebotomy. PBMCs were prepared by density gradient centrifugation. Lymph node biopsy specimens were collected at indicated time points (Fig. 2A). Lymph nodes were ground using a 70-μm cell strainer. Cell suspensions were washed and immediately used for immunostaining or cryopreserved at −80°C until use.

Data set [4] relates to CD4+ T cells from SIV-infected, ART-suppressed infant RMs. The data set can be described thus: Ex vivo viral RNA induction assay, infant CD4+ T cells. The data set is classed as cell-based, rhesus macaque. The note with it: 100 nM, 9 days, in presence of DTG+FTC. The source says:
Following confirmation of ncNF-κB pathway activation in infant naive and memory CD4^+ T cells ex vivo, we next sought to evaluate SIV reactivation following ex vivo AZD5582 stimulation in CD4^+ T cells isolated from SIV-infected, ART-suppressed infant RMs compared to CD4^+ T cells from SIV-infected, ART-suppressed adult RMs. To do so, we isolated CD4^+ T cells through negative selection from the peripheral blood of five SIV-infected, ART-suppressed adult RMs and five SIV-infected, ART-suppressed infant RMs. Cells were stimulated with either 100 nM AZD5582 or rhesus specific anti-CD2/CD3/CD28 beads (as a positive control) in the presence of ART (DTG+FTC) for 9 days. The supernatant was collected to quantify SIVgag RNA through qPCR as a measure of viral reactivation.
Viable cryopreserved PBMCs from SIV-infected, ART-suppressed infant and adult RMs collected 34 to 97 weeks post ART initiation were thawed, and CD4^+ T cells were enriched by negative selection using the NHP CD4^+ T cell isolation kit (Miltenyi Biotec). […] The viral RNA content of frozen cell-free culture supernatants collected on day 9 was determined using the SIVgag qPCR described above.

Where [5] appears, read: 10 weekly doses 0.1 mg/kg i.v., LOD 60 copies/mL.

For `CN[C@@H](C)C(=O)N[C@H](C(=O)N1CCC[C@H]1C(=O)N[C@H]1c2ccccc2C[C@H]1OCC#CC#CCO[C@@H]1Cc2ccccc2[C@@H]1NC(=O)[C@@H]1CCCN1C(=O)[C@@H](NC(=O)[C@H](C)NC)C1CCCCC1)C1CCCCC1` [AZD5582], in data set [1], the “First instance of latency reversal, time after the 4th dose” value is on record as 48 h and the “Start of on-ART viremia, time post-dose 4” value worked out at 3 days. In addition, in data set [1] (setting [5]), the “SIV reactivation, per animal (RMs with on-ART viremia above LOD)” value is recorded as 5/8 and the “SIV reactivation, per animal (percent of RMs with on-ART viremia)” value is 63%. Also, the “SIV reactivation, events >60 copies/ml (percent of measurements)” value in data set [1] (135 measurements in the 5 RMs with on-ART viremia) is listed as 6%. For the same compound, the “Peak on-ART viremia” value in data set [1] (RVf20, 2 days post-dose 9) came to 771 copies/mL. Moreover, in data set [1] (of 135 viral load measurements in the 5 RMs with on-ART viremia), the “SIV reactivation, events >60 copies/ml (measurements above LOD)” value turned out to be 8. In addition, in data set [2], the AUC0-2h is 0.512 µg·h/mL and the Cmax was 0.802 µg/mL. Besides, in data set [3], the “Tolerability / clinical adverse events” value is “well-tolerated and safe”. Besides, the “Animals whose CD4+ T cell cultures showed increased SIV RNA expression in supernatant” value in data set [4] is reported as 1/5.
